Experimental data published in ChEMBL document CHEMBL1201862, “PubChem BioAssay data set” (2004).
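In this assay, cells in 96-well plates receive the compound at five concentrations for 48 hours. Endpoints are linearly interpolated between the surrounding concentrations. GI50 = concentration required for 50% inhibition of growth.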 The source made the active and inactive calls. No stated cut-off is given here; in the data, active = GI50 up to about 1.1 µM and inactive = higher.

How the values were obtained:
Assay in all cases: NCI-60 cell line screen, 48 h
786-0 = tested on: 786-0
A549 = tested on: A549
HL-60 = tested on: HL-60
HOP-92 = tested on: HOP-92
KM12 = tested on: KM12
LOX IMVI = tested on: LOX IMVI
M14 = tested on: M14
MDA-N = tested on: MDA-N
NCI-H226 = tested on: NCI-H226
NCI/ADR-RES = tested on: NCI/ADR-RES
OVCAR-3 = tested on: OVCAR-3
OVCAR-4 = tested on: OVCAR-4
OVCAR-5 = tested on: OVCAR-5
SF-268 = tested on: SF-268
SF-539 = tested on: SF-539
SK-MEL-28 = tested on: SK-MEL-28
SNB-75 = tested on: SNB-75
SR = tested on: SR
UACC-257 = tested on: UACC-257
DMS-114 = tested on: DMS-114

SMILES	GI50 (786-0)	GI50 (A549)	GI50 (HL-60)	GI50 (HOP-92)	GI50 (KM12)	GI50 (LOX IMVI)	GI50 (M14)	GI50 (MDA-N)	GI50 (NCI-H226)	GI50 (NCI/ADR-RES)	GI50 (OVCAR-3)	GI50 (OVCAR-4)	GI50 (OVCAR-5)	GI50 (SF-268)	GI50 (SF-539)	GI50 (SK-MEL-28)	GI50 (SNB-75)	GI50 (SR)	GI50 (UACC-257)	GI50 (DMS-114)
c1ccc2c(Cc3[nH]c4ccccc4c3Cc3c[nH]c4ccccc34)c[nH]c2c1	1.73 µM (inactive)	3.1 µM (inactive)	1.86 µM (inactive)	3.9 µM (inactive)	2.09 µM (inactive)	2.19 µM (inactive)	2.36 µM (inactive)	2.16 µM (inactive)	6.08 µM (inactive)	2.55 µM (inactive)	3.16 µM (inactive)	3.06 µM (inactive)	2.85 µM (inactive)	1.23 µM (inactive)	2.56 µM (inactive)	6.21 µM (inactive)	2.48 µM (inactive)	2.87 µM (inactive)	2.71 µM (inactive)	
CCN(CC)c1cccc2c1C1(O)CCC3(CC21)OCCCCO3 (stereo not drawn)	74 µM (inactive)	49 µM (inactive)	> 100 µM (inactive)		57.8 µM (inactive)	50.8 µM (inactive)	> 100 µM (inactive)		63.4 µM (inactive)		84.9 µM (inactive)	> 100 µM (inactive)	> 100 µM (inactive)	> 100 µM (inactive)	35.3 µM (inactive)	> 100 µM (inactive)	36.5 µM (inactive)		> 100 µM (inactive)	94.6 µM (inactive)
CC(C)=CCC[C@@H](C)c1c2nc3ccccc3[nH]c-2c(C)c(=O)c1O	1.75 µM (inactive)	2.37 µM (inactive)	0.383 µM (active)	1.41 µM (inactive)	2.45 µM (inactive)	1.75 µM (inactive)	1.44 µM (inactive)	2.09 µM (inactive)	1.4 µM (inactive)	0.771 µM (active)	0.363 µM (active)	2.88 µM (inactive)	3.52 µM (inactive)	0.906 µM (active)	2.08 µM (inactive)	4.38 µM (inactive)	1.71 µM (inactive)	3.41 µM (inactive)	2.37 µM (inactive)	
COc1cc(C(=O)NO)ccc1O	> 100 µM (inactive)	> 100 µM (inactive)	> 100 µM (inactive)	> 100 µM (inactive)	> 100 µM (inactive)	> 100 µM (inactive)	> 100 µM (inactive)				> 100 µM (inactive)	> 100 µM (inactive)	> 100 µM (inactive)	> 100 µM (inactive)	87.7 µM (inactive)	> 100 µM (inactive)	> 100 µM (inactive)		> 100 µM (inactive)	> 100 µM (inactive)
O=c1cc(NNc2ccccc2)[nH]c(=S)[nH]1	4.9 µM (inactive)	> 100 µM (inactive)	25.1 µM (inactive)	32.6 µM (inactive)	27.5 µM (inactive)	16.8 µM (inactive)	36.7 µM (inactive)	40.6 µM (inactive)	> 100 µM (inactive)	40.6 µM (inactive)	16.7 µM (inactive)	71 µM (inactive)	> 100 µM (inactive)	32.7 µM (inactive)	50.2 µM (inactive)	42.7 µM (inactive)	> 100 µM (inactive)	22.5 µM (inactive)	47.6 µM (inactive)	
CCCC(=O)Nc1cc(/C=C/C(=O)N2C[C@@H]3C[C@]34C2=CC(=O)c2[nH]cc(C)c24)n(C)c1	0.0757 µM (active)	0.318 µM (active)	0.0471 µM (active)	0.372 µM (active)	0.653 µM (active)	0.0733 µM (active)	0.297 µM (active)	0.361 µM (active)	0.313 µM (active)	0.778 µM (active)	0.429 µM (active)	0.256 µM (active)	1.05 µM (active)	0.083 µM (active)	0.166 µM (active)	0.408 µM (active)	0.345 µM (active)	0.0149 µM (active)	0.098 µM (active)	
CCCCCC[C@@H]1CCC2C(CO)[C@@H](O)CC[C@@H]2C1 (stereo partly drawn)	19.3 µM (inactive)	17.4 µM (inactive)			18.7 µM (inactive)	19.3 µM (inactive)	17.5 µM (inactive)		20.6 µM (inactive)		15.8 µM (inactive)	16.3 µM (inactive)	18.5 µM (inactive)	18.1 µM (inactive)	18.7 µM (inactive)	19.6 µM (inactive)	22.8 µM (inactive)	22.5 µM (inactive)	16.7 µM (inactive)	19.6 µM (inactive)
Cc1cc(-c2nc3cc(O)ccc3s2)ccc1N	37 µM (inactive)	37 µM (inactive)	32.1 µM (inactive)	76.4 µM (inactive)	23.2 µM (inactive)	45 µM (inactive)	20.9 µM (inactive)	29.4 µM (inactive)	31.4 µM (inactive)	38.1 µM (inactive)	23.5 µM (inactive)	28 µM (inactive)	24.7 µM (inactive)	36.7 µM (inactive)	25.5 µM (inactive)	27.8 µM (inactive)	23.7 µM (inactive)	32 µM (inactive)	35.1 µM (inactive)	
